Assay results from patent US9676714B2, “Sulfonylindole derivatives and method for preparing the same” (Daewoong Pharmaceutical Co., Ltd., priority 2013, dated 2017).
Where a name gives a salt, the structure may show the parent alone.

Target: T1, proton pump (H+/K+-ATPase) (Sus scrofa, UniProt P19156)
T1 construct: Gastric vesicles were prepared from hog stomach via centrifugal separation; from tissue; host or cells: hog stomach (gastric vesicles, method of Rabon et al. 1988)
Assay: Measurement of inhibitory effects on proton pump (H+/K+-ATPase) activities
Format: biochemical
Details: hog gastric vesicles, K+-specific H+/K+-ATPase activity, Tris-HCl buffer pH 7.4, 37° C. for 40 minutes, malachite green Pi readout
How it was run: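 Hog gastric vesicles in 60 mmol/l Tris-HCl pH 7.4 with 0.5% DMSO were treated with compounds at room temperature; reaction was started with 10 μl of 10 mmol/l ATP stock. Released Pi was read at 570 nm, K+-specific activity taken as the ±K+ difference. IC50 from 4-parameter logistic fit.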

T1 sequence (P19156 whole entry): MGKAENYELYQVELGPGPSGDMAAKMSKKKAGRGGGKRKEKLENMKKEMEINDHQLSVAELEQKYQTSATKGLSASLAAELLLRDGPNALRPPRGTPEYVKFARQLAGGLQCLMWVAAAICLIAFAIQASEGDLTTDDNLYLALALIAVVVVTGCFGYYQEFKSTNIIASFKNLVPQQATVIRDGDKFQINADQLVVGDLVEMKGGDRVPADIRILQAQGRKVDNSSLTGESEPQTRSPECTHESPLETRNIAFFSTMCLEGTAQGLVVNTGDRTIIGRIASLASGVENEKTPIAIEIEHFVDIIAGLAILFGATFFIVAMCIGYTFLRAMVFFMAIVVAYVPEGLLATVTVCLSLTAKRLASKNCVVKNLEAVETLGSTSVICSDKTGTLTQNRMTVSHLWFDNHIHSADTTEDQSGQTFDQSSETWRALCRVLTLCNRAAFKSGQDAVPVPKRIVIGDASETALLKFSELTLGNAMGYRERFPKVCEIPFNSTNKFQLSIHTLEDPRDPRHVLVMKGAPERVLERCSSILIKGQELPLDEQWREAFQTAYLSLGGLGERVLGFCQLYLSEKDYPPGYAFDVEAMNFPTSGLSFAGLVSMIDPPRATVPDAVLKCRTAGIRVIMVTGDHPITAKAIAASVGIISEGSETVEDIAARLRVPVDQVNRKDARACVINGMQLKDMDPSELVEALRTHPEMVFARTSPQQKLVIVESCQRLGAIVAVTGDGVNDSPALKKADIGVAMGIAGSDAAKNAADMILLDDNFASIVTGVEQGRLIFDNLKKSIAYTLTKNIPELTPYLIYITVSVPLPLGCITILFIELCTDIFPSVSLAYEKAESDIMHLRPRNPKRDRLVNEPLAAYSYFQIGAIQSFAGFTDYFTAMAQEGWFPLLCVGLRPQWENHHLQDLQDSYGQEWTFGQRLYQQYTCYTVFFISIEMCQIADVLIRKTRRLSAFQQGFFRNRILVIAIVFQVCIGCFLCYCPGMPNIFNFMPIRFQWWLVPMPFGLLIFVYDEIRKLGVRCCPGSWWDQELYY
T1 sequence (P18434 whole entry partner): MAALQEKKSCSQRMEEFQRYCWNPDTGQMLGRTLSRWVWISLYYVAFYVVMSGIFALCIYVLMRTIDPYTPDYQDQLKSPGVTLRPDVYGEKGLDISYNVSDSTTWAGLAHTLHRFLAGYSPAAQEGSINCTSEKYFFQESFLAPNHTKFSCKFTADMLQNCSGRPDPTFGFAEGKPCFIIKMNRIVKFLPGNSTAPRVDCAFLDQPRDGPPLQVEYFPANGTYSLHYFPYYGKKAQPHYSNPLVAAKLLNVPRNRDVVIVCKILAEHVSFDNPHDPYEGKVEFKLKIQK

| Compound | IC50 |
| --- | --- |
| CNCc1cn(S(=O)(=O)c2cccc(OC)c2)c2cc(Nc3ccc(OC)nc3Cl)ccc12 [Example 173, N-(2-chloro-6-methoxypyridin-3-yl)-1-((3-methoxyphenyl)sulfonyl)-3-((methylamino)methyl)-1H-indol-6-amine hydrochloride] | 1190 nM |
| CNCc1cn(S(=O)(=O)c2cccc(C(F)(F)F)c2)c2cc(Nc3ccc(Cl)cc3C(F)(F)F)ccc12 [Example 186, N-(4-chloro-2-(trifluoromethyl)phenyl)-3-((methylamino)methyl)-1-((3-(trifluoromethyl)phenyl)sulfonyl)-1H-indol-6-amine hydrochloride] | 410 nM |
| COC(=O)c1cn(S(=O)(=O)c2cccnc2)c2cc(-c3ccc(OC)cc3)ccc12 [Example 335, methyl 6-(4-methoxyphenyl)-1-(pyridin-3-ylsulfonyl)-1H-indol-3-carboxylate] | 1340 nM |
| CNCc1cn(S(=O)(=O)c2cccc(C(F)(F)F)c2)c2cc(Cc3ccc(C)c(F)c3F)ccc12 [Example 288, 1-(6-(2,3-difluoro-4-methylbenzyl)-1-((3-(trifluoromethyl)phenyl)sulfonyl)-1H-indol-3-yl)-N-methylmethanamine] | 1450 nM |
| CNCc1cn(S(=O)(=O)c2cccnc2)c2cc(-c3cnn(C)c3)ccc12 [Example 249, N-methyl-1-(6-(1-methyl-1H-pyrazol-4-yl)-1-(pyridin-3-ylsulfonyl)-1H-indol-3-yl)methanamine] | 50000 nM |
| CCc1cccc(Nc2ccc3c(CNC)cn(S(=O)(=O)c4cccnc4)c3c2)c1 [Example 8, N-(3-ethylphenyl)-3-((methylamino)methyl)-1-(pyridin-3-ylsulfonyl)-1H-indol-6-amine hydrochloride] | 170 nM |
| CNCc1cn(S(=O)(=O)c2cccnc2)c2cc(Cc3cccnc3OC)ccc12 [Example 282, 1-(6-((2-methoxypyridin-3-yl)methyl)-1-(pyridin-3-ylsulfonyl)-1H-indol-3-yl)-N-methylmethanamine hydrochloride] | 2920 nM |
| CNCc1cn(S(=O)(=O)c2cccnc2)c2cc(-c3ccc(C)cc3F)ccc12 [Example 252, 1-(6-(2-fluoro-4-methylphenyl)-1-(pyridin-3-ylsulfonyl)-1H-indol-3-yl)-N-methylmethanamine hydrochloride] | 1000 nM |
| CNCc1cn(S(=O)(=O)c2cccc(OC(F)(F)F)c2)c2cc(Nc3ccc(OC(F)(F)F)cc3Cl)ccc12 [Example 201, N-(2-chloro-4-(trifluoromethoxy)phenyl)-3-((methylamino)methyl)-1-((3-(trifluoromethoxy)phenyl)sulfonyl)-1H-indol-6-amine hydrochloride] | 660 nM |
| CNCc1cn(S(=O)(=O)c2cccc(F)c2)c2cc(Cc3ccc(C)c(F)c3F)ccc12 [Example 287, 1-(6-(2,3-difluoro-4-methylbenzyl)-1-((3-fluorophenyl)sulfonyl)-1H-indol-3-yl)-N-methylmethanamine] | 1670 nM |
| CNCc1cn(S(=O)(=O)c2cccc(OC(F)F)c2)c2cc(Cc3ccc(OC)nc3Cl)ccc12 [Example 296, 1-(6-((2-chloro-6-methoxypyridin-3-yl)methyl)-1-((3-(difluoromethoxy)phenyl)sulfonyl)-1H-indol-3-yl)-N-methylmethanamine] | 930 nM |
| CNCc1cn(S(=O)(=O)c2cccc(OC(F)F)c2)c2cc(-c3cnc(OC)nc3)ccc12 [Example 266, 1-(1-((3-(difluoromethoxy)phenyl)sulfonyl)-6-(2-methoxypyrimidin-5-yl)-1H-indol-3-yl)-N-methylmethanamine hydrochloride] | 45000 nM |
| CNCc1cn(S(=O)(=O)c2cccnc2)c2cc(Nc3ccc(C(C)(C)C)cc3)ccc12 [Example 14, N-(4-(tert-butyl)phenyl)-3-((methylamino)methyl)-1-(pyridin-3-ylsulfonyl)-1H-indol-6-amine hydrochloride] | 1500 nM |
| CNCc1cn(S(=O)(=O)c2ccc(Cl)c(Cl)c2)c2cc(Nc3ccc(C)cc3F)ccc12 [Example 238, 1-((3,4-dichlorophenyl)sulfonyl)-N-(2-fluoro-4-methylphenyl)-3-((methylamino)methyl)-1H-indol-6-amine hydrochloride] | 2560 nM |
| Cc1cc(OC(F)(F)F)ccc1Nc1ccc2c(C(=O)N(C)C)cn(S(=O)(=O)c3cccnc3)c2c1 [Example 326, N,N-dimethyl-6-((2-methyl-4-(trifluoromethoxy)phenyl)amino)-1-(pyridin-3-ylsulfonyl)-1H-indol-3-carboxamide] | 37000 nM |
| CNCc1cn(S(=O)(=O)c2ccc(OC(F)F)cc2)c2cc(Cc3ccc(OC)nc3Cl)ccc12 [Example 298, 1-(6-((2-chloro-6-methoxypyridin-3-yl)methyl)-1-((4-(difluoromethoxy)phenyl)sulfonyl)-1H-indol-3-yl)-N-methylmethanamine] | 3600 nM |
| CNCc1cn(S(=O)(=O)c2cccc(C(F)(F)F)c2)c2cc(Nc3ccc(Cl)nc3Cl)ccc12 [Example 193, N-(2,6-dichloropyridin-3-yl)-3-((methylamino)methyl)-1-((3-(trifluoromethyl)phenyl)sulfonyl)-1H-indol-6-amine hydrochloride] | 580 nM |
| CNCc1cn(S(=O)(=O)c2cccc(OC(F)F)c2)c2cc(Nc3ccc(C)c(F)c3F)ccc12 [Example 180, N-(2,3-difluoro-4-methylphenyl)-1-((3-(difluoromethoxy)phenyl)sulfonyl)-3-((methylamino)methyl)-1H-indol-6-amine hydrochloride] | 270 nM |
| CNCc1cn(S(=O)(=O)c2cccc(OC)c2)c2cc(Nc3ccc(Cl)cc3C(F)(F)F)ccc12 [Example 165, N-(4-chloro-2-(trifluoromethyl)phenyl)-1-((3-methoxyphenyl)sulfonyl)-3-((methylamino)methyl)-1H-indol-6-amine hydrochloride] | 80 nM |
| CNCc1cn(S(=O)(=O)c2cncc(F)c2)c2cc(Nc3ccc(OC(F)(F)F)cc3Cl)ccc12 [Example 215, N-(2-chloro-4-(trifluoromethoxy)phenyl)-1-((5-fluoropyridin-3-yl)sulfonyl)-3-((methylamino)methyl)-1H-indol-6-amine hydrochloride] | 820 nM |
| CNCc1cn(S(=O)(=O)c2cccnc2)c2cc(Nc3ccnc(OC)c3Br)ccc12 [Example 131, N-(3-bromo-2-methoxypyridin-4-yl)-3-((methylamino)methyl)-1-(pyridin-3-ylsulfonyl)-1H-indol-6-amine hydrochloride] | 780 nM |

Further lines, results first:

| IC50 | Compound |
| --- | --- |
| 870 nM | CCOc1cc(F)c(Nc2ccc3c(CNC)cn(S(=O)(=O)c4cccnc4)c3c2)c(F)c1 [Example 89, N-(4-ethoxy-2,6-difluorophenyl)-3-((methylamino)methyl)-1-(pyridin-3-ylsulfonyl)-1H-indol-6-amine hydrochloride] |
| 450 nM | CNCc1cn(S(=O)(=O)c2cccnc2)c2cc(Nc3cc(F)c(F)cc3F)ccc12 [Example 74, 3-((methylamino)methyl)-1-(pyridin-3-ylsulfonyl)-N-(2,4,5-trifluorophenyl)-1H-indol-6-amine hydrochloride] |
| 1730 nM | CNCc1cn(S(=O)(=O)c2cccnc2)c2cc(Nc3c(F)c(F)c(C(F)(F)F)c(F)c3F)ccc12 [Example 96, 3-((methylamino)methyl)-1-(pyridin-3-ylsulfonyl)-N-(2,3,5,6-tetrafluoro-4-(trifluoromethyl)phenyl)-1H-indol-6-amine hydrochloride] |
| 440 nM | CNCc1cn(S(=O)(=O)c2cccnc2)c2cc(Nc3ccc(Cl)nc3C(F)(F)F)ccc12 [Example 121, N-(6-chloro-2-(trifluoromethyl)pyridin-3-yl)-3-((methylamino)methyl)-1-(pyridin-3-ylsulfonyl)-1H-indol-6-amine hydrochloride] |
| 480 nM | CNCc1cn(S(=O)(=O)c2cccnc2)c2cc(Nc3cccnc3Cl)ccc12 [Example 107, N-(2-chloropyridin-3-yl)-3-((methylamino)methyl)-1-(pyridin-3-ylsulfonyl)-1H-indol-6-amine hydrochloride] |
| 2390 nM | CNCc1cn(S(=O)(=O)c2cccnc2)c2cc(Nc3ccc(F)c(OC)c3F)ccc12 [Example 68, N-(2,4-difluoro-3-methoxyphenyl)-3-((methylamino)methyl)-1-(pyridin-3-ylsulfonyl)-1H-indol-6-amine hydrochloride] |
| 780 nM | CNCc1cn(S(=O)(=O)c2cccnc2)c2cc(Nc3c(C)cc(Cl)cc3[N+](=O)[O-])ccc12 [Example 94, N-(4-chloro-2-methyl-6-nitrophenyl)-3-((methylamino)methyl)-1-(pyridin-3-ylsulfonyl)-1H-indol-6-amine hydrochloride] |
| 380 nM | CNCc1cn(S(=O)(=O)c2cccnc2)c2cc(Nc3ccc(F)c(F)c3F)ccc12 [Example 67, 3-((methylamino)methyl)-1-(pyridin-3-ylsulfonyl)-N-(2,3,4-trifluorophenyl)-1H-indol-6-amine hydrochloride] |
| 340 nM | CNCc1cn(S(=O)(=O)c2cccnc2)c2cc(Nc3ccc(C)nc3Cl)ccc12 [Example 113, N-(2-chloro-6-methylpyridin-3-yl)-3-((methylamino)methyl)-1-(pyridin-3-ylsulfonyl)-1H-indol-6-amine hydrochloride] |
| 1630 nM | CNCc1cn(S(=O)(=O)c2cccnc2)c2cc(Nc3ccc(C(F)(F)F)cc3C(F)(F)F)ccc12 [Example 35, N-(2,4-Bis(trifluoromethyl)phenyl)-3-((methylamino)methyl)-1-(pyridin-3-ylsulfonyl)-1H-indol-6-amine hydrochloride] |
| 350 nM | CNCc1cn(S(=O)(=O)c2cccnc2)c2cc(Nc3cc(C)ccc3F)ccc12 [Example 59, N-(2-fluoro-5-methylphenyl)-3-((methylamino)methyl)-1-(pyridin-3-ylsulfonyl)-1H-indol-6-amine hydrochloride] |
